{"source": "patent EP4692090A1", "about": "(Shanghai Fosun Pharmaceutical (Group) Co., Ltd., priority 2023, dated 2024)", "data": [{"system": "LoVo cells", "assay": "LoVo cell proliferation assay (CellTiter-Glo)", "type": "cell-based", "conditions": "Homo sapiens, LoVo, 120 h, LoVo cells, 2,000 cells per well, 5 days incubation, CellTiter-Glo; maximum concentration 10 µM, 9 concentrations; read-out: LoVo IC50", "protocol": "(§1) Test Example 2: LoVo cell proliferation assay\n(§2) LoVo (ATCC, #CRL-229) cells in logarithmic growth phase were digested, counted, and plated into 96-well cell culture plates at 2,000 cells per well. The plates containing cells were incubated overnight at 37°C in a 5% CO2 incubator, and then test compounds with 3-fold gradient dilutions (maximum concentration: 10 µM, 9 concentrations) were added. DMSO was used as a blank control. After the LoVo cells containing the compounds or DMSO were incubated for an additional 5 days, an equal volume of CellTiter-Glo reagent (Promega, #7573) was added. After incubation at room temperature for 30 minutes, chemiluminescence was read using an Envision 2105 (PerkinElmer). The cell proliferation inhibition rate (%) for wells treated with each concentration of the compounds was calculated using the following formula. Then, with compound concentration as the horizontal axis and cell proliferation inhibition rate (%) as the vertical axis, GraphPad software was used to plot the data and determine the IC50 values of the test compounds. The results are shown in Table 2, wherein the IC50 ranges are defined as follows: A: ≤ 100 nM; 1000 nM ≥ B > 100 nM; C > 1000 nM.\n(§3) Cell proliferation inhibition (%) = (1 - luminescence value of compound-treated group / average luminescence value of DMSO blank control group) × 100. Table 2. Inhibitory effect of compounds on LoVo growth", "units": {"IC50": "nM"}, "values": [{"compound": "CC1c2cc(N3CCOC[C@H]3C)nc3c2c(nn3-c2cc[nH]n2)CCN1CC(F)F", "note": "(single isomer, unassigned) [Compound 45A]", "IC50": "100 to 1000"}, {"compound": "CC(C)C1c2cc(N3CCOC[C@H]3C)nc3c2c(nn3-c2cc[nH]n2)CCN1S(C)(=O)=O", "note": "(single isomer, unassigned) [Compound 140A]", "IC50": "< 100"}, {"compound": "CC1c2cc(N3CCOC[C@H]3C)nc3c(-c4cc[nH]n4)nn(c23)CCN1C", "note": "(single isomer, unassigned) [Compound 59A]", "IC50": "100 to 1000"}, {"compound": "C[C@@H]1COCCN1c1cc2c3c(nn(-c4cc[nH]n4)c3n1)CCN(S(=O)(=O)C1CC1)C2C1CC1", "note": "(stereo partly drawn) [Compound 143, (3R)-4-(6-cyclopropyl-7-(cyclopropylsulfonyl)-2-(1H-pyrazol-3-yl)-6,7,8,9-tetrahydro-2H-1,2,3,7-tetraazabenzo[cd]-azulen-4-yl)-3-methylmorpholine]", "IC50": "100 to 1000"}, {"compound": "CC1c2cc(N3CCOC[C@H]3C)nc3c2c(nn3-c2cc[nH]n2)CCN1S(N)(=O)=O", "note": "(stereo partly drawn) [Compound 150, 6-methyl-4-((R)-3-methylmorpholino)-2-(1H-pyrazol-3-yl)-2,6,8,9-tetrahydro-7H-1,2,3,7-tetraazabenzene[cd]azulene-7-sulfonamide]", "IC50": "100 to 1000"}, {"compound": "C[C@@H]1COCCN1c1cc2c3c(nn(-c4cc[nH]n4)c3n1)CCOC2C(F)F", "note": "(stereo partly drawn) [Compound 148, 6-(difluoromethyl)-4-((R)-3-methylmorpholino)-2-(1H-pyrazol-3-yl)-2,6,8,9-tetrahydro-7-oxa-1,2,3-triazabenzo[cd]azulene]", "IC50": "< 100"}, {"compound": "CC1c2cc(N3CCOC[C@H]3C)nc3c2c(nn3-c2cc[nH]n2)CCN1S(C)(=N)=O", "note": "(single isomer, unassigned) [Compound 46A]", "IC50": "100 to 1000"}, {"compound": "C[C@@H]1COCCN1c1cc2c3c(n1)c(-c1cc[nH]n1)nn3CCC2(O)c1cnn(C)c1", "note": "(single isomer, unassigned) [Compound 74A]", "IC50": "> 1000"}, {"compound": "CC1c2cc(N3CCOC[C@H]3C)nc3c(-c4cc[nH]n4)nn(c23)CCN1S(C)(=O)=O", "note": "(stereo partly drawn) [Compound 60, (3R)-3-methyl-4-(6-methyl-7-(methylsulfonyl)-2-(1H-pyrazol-3-yl)-6,7,8,9-tetrahydro-1,3,7,9a-tetraazabenzo[cd]azulen-4-yl)morpholine]", "IC50": "100 to 1000"}, {"compound": "C[C@@H]1COCCN1c1cc2c3c(n1)c(-c1cc[nH]n1)nn3CCC2(C)O", "note": "(stereo partly drawn) [Compound 71, 6-methyl-4-((R)-3-methylmorpholino)-2-(1H-pyrazol-3-yl)-7,8-dihydro-6H-pyrazolo[4,5,1-ij][1, 7]naphthyridin-6-ol]", "IC50": "100 to 1000"}, {"compound": "C[C@@H]1COCCN1c1cc2c3c(n1)c(-c1cc[nH]n1)nn3CCNC2", "note": "[Compound 51, (R)-4-(2-(1H-pyrazol-3-yl)-6,7,8,9-tetrahydro-1,3,7,9a-tetraazabenzo[cd]azulen-4-yl)-3-methylmorpholine]", "IC50": "100 to 1000"}, {"compound": "C[C@@H]1COCCN1c1cc2c3c(n1)c(-c1cc[nH]n1)nn3CCC(=O)N2[C@H](C)CC(F)(F)F", "note": "[Compound 111B, 4-((R)-3-methylmorpholino)-2-(1H-pyrazol-3-yl)-6-((R)-4,4,4-trifluorobutan-2-yl)-8,9-dihydro-1,3,6,9a-tetraazabenzo[cd]azulene-7(6H)-one]", "IC50": "100 to 1000"}, {"compound": "C[C@@H]1COCCN1c1cc2c3c(nn(-c4cc[nH]n4)c3n1)CCN(S(=O)(=O)C1COC1)C2", "note": "[Compound 26, (R)-3-methyl-4-(7-(oxetan-3-ylsulfonyl)-2-(1H-pyrazol-3-yl)-6,7,8,9-tetrahydro-2H-1,2,3,7-tetraazabenzo[cd]azulen-4-yl)morpholine]", "IC50": "100 to 1000"}, {"compound": "C[C@@H]1COCCN1c1cc2c3c(nn(-c4cc[nH]n4)c3n1)CCN(S(=O)(=O)C(F)(F)F)C2", "note": "[Compound 25, (R)-4-(2-(1H-pyrazol-3-yl)-7-((trifluoromethyl)sulfonyl)-6,7,8,9-tetrahydro-2H-1,2,3,7-tetraazabenzo[cd]azulen-4-yl)-3-methylmorpholine]", "IC50": "< 100"}, {"compound": "C[C@@H]1COCCN1c1cc2c3c(n1)c(-c1cc[nH]n1)nn3CCC(=O)N2[C@@H](C)CC(F)(F)F", "note": "[Compound 111A, 4-((R)-3-methylmorpholino)-2-(1H-pyrazol-3-yl)-6-((S)-4,4,4-trifluorobutan-2-yl)-8,9-dihydro-1,3,6,9a-tetraazabenzo[cd]azulene-7(6H)-one]", "IC50": "100 to 1000"}, {"compound": "C[C@@H]1COCCN1c1cc2c3c(n1)c(-c1cc[nH]n1)nn3CCN2S(C)(=O)=O", "note": "[Compound 64]", "IC50": "100 to 1000"}, {"compound": "C[C@@H]1COCCN1c1cc2c3c(n1)c(-c1cc[nH]n1)nn3CCC2(O)C1CCOCC1", "note": "(single isomer, unassigned) [Compound 73A]", "IC50": "> 1000"}, {"compound": "CC1c2cc(N3CCOC[C@H]3C)nc3c2c(nn3-c2cc[nH]n2)CCN1c1cnn(C)c1", "note": "(stereo partly drawn) [Compound 43, (3R)-3-methyl-4-(6-methyl-7-(1-methyl-1H-pyrazol-4-yl)-2-(1H-pyrazol-3-yl)-6,7,8,9-tetrahydro-2H-1,2,3,7-tetraazabenzo[cd]azulen-4-yl)morpholine]", "IC50": "100 to 1000"}]}, {"system": "LoVo cells", "assay": "LoVo cell proliferation assay (CellTiter-Glo)", "type": "cell-based", "conditions": "Homo sapiens, LoVo, 120 h, read-out: LoVo IC50 (nM), LoVo cells, 2,000 cells per well, 5 days incubation, CellTiter-Glo; maximum concentration 10 µM, 9 concentrations", "protocol": "as §1, §2, §3", "units": {"IC50": "nM"}, "values": [{"compound": "C[C@@H]1COCCN1c1cc2c3c(nn(-c4cc[nH]n4)c3n1)CCC(=O)N2C12CC(C1)C2", "note": "[Compound 76, (R)-6-(bicyclo[1.1.1]pentan-1-yl)-4-(3-methylmorpholinyl)-2-(1H-pyrazol-3-yl)-2,6,8,9-tetrahydro-7H-1,2,3,6-tetraazabenzo[cd]azulene-7-one]", "IC50": "< 100"}, {"compound": "C[C@@H]1COCCN1c1cc2c3c(nn(-c4cc[nH]n4)c3n1)CCC(=O)N2C1(CF)CC1", "note": "[Compound 80, (R)-6-(1-(fluoromethyl)cyclopropyl)-4-(3-methylmorpholinyl)-2-(1H-pyrazol-3-yl)-2,6,8,9-tetrahydro-7H-1,2,3,6-tetraazabenzo[cd]azulene-7-one]", "IC50": "< 100"}]}, {"system": "LoVo cells", "assay": "LoVo cell proliferation assay (CellTiter-Glo)", "type": "cell-based", "conditions": "LoVo cells, 2,000 cells per well, 5 days incubation, CellTiter-Glo; maximum concentration 10 µM, 9 concentrations; read-out: LoVo IC50", "protocol": "as §1, §2, §3", "units": {"IC50": "nM"}, "values": [{"compound": "CC1c2cc(N3CCOC[C@H]3C)nc3c2c(nn3-c2cc[nH]n2)CCN1CC1COC1", "note": "(single isomer, unassigned) [Compound 44B]", "IC50": "100 to 1000"}, {"compound": "C[C@@H]1COCCN1c1cc2c3c(n1)c(-c1cc[nH]n1)nn3CCC2(O)C1CCOCC1", "note": "(single isomer, unassigned) [Compound 73B]", "IC50": "> 1000"}, {"compound": "CC1c2cc(N3CCOC[C@H]3C)nc3c(-c4cc[nH]n4)nn(c23)CCN1C", "note": "(single isomer, unassigned) [Compound 59B]", "IC50": "100 to 1000"}, {"compound": "CC1c2cc(N3CCOC[C@H]3C)nc3c2c(nn3-c2cc[nH]n2)CCN1CC(F)F", "note": "(single isomer, unassigned) [Compound 45B]", "IC50": "100 to 1000"}, {"compound": "CC(C)C1c2cc(N3CCOC[C@H]3C)nc3c2c(nn3-c2cc[nH]n2)CCN1S(C)(=O)=O", "note": "(single isomer, unassigned) [Compound 140B]", "IC50": "100 to 1000"}, {"compound": "CC1c2cc(N3CCOC[C@H]3C)nc3c2c(nn3-c2cc[nH]n2)CCN1S(C)(=N)=O", "note": "(single isomer, unassigned) [Compound 46D]", "IC50": "100 to 1000"}, {"compound": "C[C@@H]1COCCN1c1cc2c3c(n1)c(-c1cc[nH]n1)nn3CCC2(O)c1cnn(C)c1", "note": "(single isomer, unassigned) [Compound 74B]", "IC50": "> 1000"}, {"compound": "CC1c2cc(N3CCOC[C@H]3C)nc3c2c(nn3-c2cc[nH]n2)CCN1S(C)(=N)=O", "note": "(single isomer, unassigned) [Compound 46B]", "IC50": "100 to 1000"}]}]}
